From PubChem BioAssay AID1963862 (Molecular Pharmacology Branch, DTP, NCI, 2024)

Test system: KRAS patient-derived spheroids with HUVEC/MSC, viability
Assay: Anticancer human tumor 941728-121-R-J1-PDC patient-derived lung adenocarcinoma cell line growth inhibition [KRAS2]
Settings: for IC50: curve of first compound; for viability, T/C: stronger effect = lower value
From the text: Multicellular complex tumor spheroid response to RAS pathway inhibitors in combination with a targeted agents in patient-derived cell lines with oncogenic KRAS variants from multiple cancer types
A high-throughput screen of multi-cell type tumor spheroids was designed to identify active combinations of targeted small molecules and KRAS pathway inhibitors. Complex spheroids include a stromal component modeled by human endothelial cells (HUVEC) and fibroblasts modeled by human mesenchymal stem cells (MSCs). The concentration ranges selected for each drug and investigational agent were based upon clinically achievable concentrations if the clinical Cmax of the agent was known.
Compounds. The drugs and investigational agents: BI-3406 (NSC825286), BAY-293 (NSC824723), batoprotafib (TNO155; NSC825523), sotorasib (AMG 510; NSC818433), MRTX1257 (NSC819558), elimusertib (BAY 1895344; NSC800525), molibresib (GSK525762; NSC774829), temuterkib (LY3214996; NSC803410), venetoclax (NSC766270), alisertib (NSC759677), olaparib (NSC753686), talazoparib (NSC767125), erdafitinib (NSC781556), ipatasertib (NSC767898), cabozantinib (NSC761068), nintedanib (NSC756659), abemaciclib (NSC768073), docetaxel (NSC628503), trametinib (NSC758246), and sapanisertib (NSC764658) were obtained from the National Cancer Institute (NCI) Developmental Therapeutics Program Chemical Repository. The FDA-approved anticancer drug set is available from the Developmental Therapeutics Program. […] The stock solutions were prepared in dimethyl sulfoxide (DMSO, Sigma-Aldrich, St. Louis, MO, cat. D2650) at 800-fold the tested concentration and stored at -70 degrees C prior to their use. All drugs and investigational agents were tested over a range starting from a high concentration at or near the clinical Cmax and decreasing in half-log increments. If the clinical Cmax for an agent had not been determined, the highest concentration tested was 10 microM.
Cell Culture. All cells were maintained in an incubator at 37 degrees C and 5% CO2 with 95% humidity. The PDC lines were cultured according to standard operating procedures established by the NCI PDMR (https://pdmr.cancer.gov/sops/default.htm). Briefly, all PDCs were thawed and cultured in Matrigel-coated flasks prepared with a working solution of 1X Ham's F-12 nutrient mix, without supplementation (Invitrogen, Waltham, MA, cat. 11765054), 100 U/mL penicillin-streptomycin (Invitrogen, cat. 15140122), and 2.5% Matrigel (Corning Inc., Corning, NY, cat. 354248) for the first three passages. All PDCs were cultured in complete DMEM/F-12 media containing advanced DMEM/F-12 (Invitrogen, cat. 12634028), 4.9% defined fetal bovine serum, heat inactivated (HyClone Laboratories Inc., Logan, UT, cat. SH30070.03HI), 389 ng/mL hydrocortisone (Sigma-Aldrich, cat. H4001), 9.7 ng/mL human EGF recombinant protein (Invitrogen, cat. PHG0313), 23.4 microg/mL adenine (Sigma-Aldrich, cat. A2786), 97.3 U/mL penicillin-streptomycin (Invitrogen, cat. 15140122), 1.9 mM L-glutamine (Invitrogen, cat. 25030081), and 9.7 microM Y-27632 dihydrochloride (Tocris Bioscience, Bristol, United Kingdom, cat. 1254). The PDCs were cultured in complete DMEM/F12 media without 9.7 microM Y-27632 dihydrochloride for at least two passages prior to the screen. The established cell line HOP-62 was cultured in RPMI 1640 medium, HEPES (Invitrogen, cat. 22400105) with 10% defined fetal bovine serum (HyClone Laboratories Inc., cat. SH30070.03) and 2 mM L-glutamine (Invitrogen, cat. 25030081). The pooled donor HUVEC were cultured in endothelial cell growth medium 2 (PromoCell, Heidelberg, Germany, cat. C-22011) and the hMSC were cultured in mesenchymal stem cell growth medium 2 (PromoCell, cat. C-28009). For all experiments, HUVEC and hMSC were used at passages </=5, while the malignant cell lines were used at passages </=15. […]

[1] = second compound 0.1 µM, first compound 0.0316 µM
[2] = second compound 0.1 µM, first compound 0.1 µM
[3] = second compound 0.316 µM, first compound 0.0316 µM
[4] = second compound 0.316 µM, first compound 0.1 µM
[5] = second compound 1 µM, first compound 0.0316 µM
[6] = second compound 1 µM, first compound 0.1 µM
[7] = second compound 3.16 µM, first compound 0.0316 µM
[8] = second compound 3.16 µM, first compound 0.1 µM
[9] = second compound 10 µM, first compound 0.0316 µM
[10] = second compound 10 µM, first compound 0.1 µM
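Note: spheroids exposed to agents for seven days before readout.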

Compound: CC1(C)CCC(CN2CCN(c3ccc(C(=O)NS(=O)(=O)c4ccc(NCC5CCOCC5)c([N+](=O)[O-])c4)c(Oc4cnc5[nH]ccc5c4)c3)CC2)=C(c2ccc(Cl)cc2)C1 + C=CC(=O)N1CCN(c2nc(=O)n(-c3c(C)ccnc3C(C)C)c3nc(-c4c(O)cccc4F)c(F)cc23)C(C)C1
- IC50 (second compound 0.1 µM): < 31.6 nM
- IC50 (second compound 0.316 µM): < 31.6 nM
- IC50 (second compound 1 µM): < 31.6 nM
- IC50 (second compound 3.16 µM): < 31.6 nM
- IC50 (second compound 10 µM): < 31.6 nM
- viability, T/C [1]: 20.2%
- viability, T/C [2]: 17.6%
- viability, T/C (second compound 0.1 µM, first compound 0.316 µM): 17.8%
- viability, T/C (second compound 0.1 µM, first compound 1 µM): 17.4%
- viability, T/C (second compound 0.1 µM, first compound 3.16 µM): 7.67%
- viability, T/C (second compound 0.1 µM, first compound 10 µM): 2.7%
- viability, T/C [3]: 18.6%
- viability, T/C [4]: 16.1%
- viability, T/C (second compound 0.316 µM, first compound 0.316 µM): 16.4%
- viability, T/C (second compound 0.316 µM, first compound 1 µM): 16.3%
- viability, T/C (second compound 0.316 µM, first compound 3.16 µM): 9.65%
- viability, T/C (second compound 0.316 µM, first compound 10 µM): 4.02%
- viability, T/C [5]: 20.8%
- viability, T/C [6]: 19.7%
- viability, T/C (second compound 1 µM, first compound 0.316 µM): 29.4%
- viability, T/C (second compound 1 µM, first compound 1 µM): 17%
- viability, T/C (second compound 1 µM, first compound 3.16 µM): 13.2%
- viability, T/C (second compound 1 µM, first compound 10 µM): 4.29%
- viability, T/C [7]: 19.3%
- viability, T/C [8]: 16.4%
- viability, T/C (second compound 3.16 µM, first compound 0.316 µM): 22.5%
- viability, T/C (second compound 3.16 µM, first compound 1 µM): 18.2%
- viability, T/C (second compound 3.16 µM, first compound 3.16 µM): 15.2%
- viability, T/C (second compound 3.16 µM, first compound 10 µM): 4.62%
- viability, T/C [9]: 25.3%
- viability, T/C [10]: 24.8%
- viability, T/C (second compound 10 µM, first compound 0.316 µM): 25.7%
- viability, T/C (second compound 10 µM, first compound 1 µM): 22.4%
- viability, T/C (second compound 10 µM, first compound 3.16 µM): 8.54%
- viability, T/C (second compound 10 µM, first compound 10 µM): 8.81%

Compound: Cn1ncnc1[C@H]1c2n[nH]c(=O)c3cc(F)cc(c23)N[C@@H]1c1ccc(F)cc1 + C=CC(=O)N1CCN(c2nc(=O)n(-c3c(C)ccnc3C(C)C)c3nc(-c4c(O)cccc4F)c(F)cc23)C(C)C1
- IC50 (second compound 0.1 µM): < 0.316 nM
- IC50 (second compound 0.316 µM): < 0.316 nM
- IC50 (second compound 1 µM): < 0.316 nM
- IC50 (second compound 3.16 µM): < 0.316 nM
- IC50 (second compound 10 µM): < 0.316 nM
- viability, T/C (second compound 0.1 µM, first compound 0.000316 µM): 14.7%
- viability, T/C (second compound 0.1 µM, first compound 0.001 µM): 15.4%
- viability, T/C (second compound 0.1 µM, first compound 0.00316 µM): 13.9%
- viability, T/C (second compound 0.1 µM, first compound 0.01 µM): 13.6%
- viability, T/C [1]: 13.5%
- viability, T/C [2]: 13.9%
- viability, T/C (second compound 0.316 µM, first compound 0.000316 µM): 17.4%
- viability, T/C (second compound 0.316 µM, first compound 0.001 µM): 14.9%
- viability, T/C (second compound 0.316 µM, first compound 0.00316 µM): 15.3%
- viability, T/C (second compound 0.316 µM, first compound 0.01 µM): 14.8%
- viability, T/C [3]: 14.1%
- viability, T/C [4]: 14.1%
- viability, T/C (second compound 1 µM, first compound 0.000316 µM): 16%
- viability, T/C (second compound 1 µM, first compound 0.001 µM): 15.5%
- viability, T/C (second compound 1 µM, first compound 0.00316 µM): 17.6%
- viability, T/C (second compound 1 µM, first compound 0.01 µM): 15.9%
- viability, T/C [5]: 15.9%
- viability, T/C [6]: 15.2%
- viability, T/C (second compound 3.16 µM, first compound 0.000316 µM): 15.8%
- viability, T/C (second compound 3.16 µM, first compound 0.001 µM): 18.3%
- viability, T/C (second compound 3.16 µM, first compound 0.00316 µM): 15.4%
- viability, T/C (second compound 3.16 µM, first compound 0.01 µM): 17.4%
- viability, T/C [7]: 13.6%
- viability, T/C [8]: 14.9%
- viability, T/C (second compound 10 µM, first compound 0.000316 µM): 17.9%
- viability, T/C (second compound 10 µM, first compound 0.001 µM): 20.1%
- viability, T/C (second compound 10 µM, first compound 0.00316 µM): 17.3%
- viability, T/C (second compound 10 µM, first compound 0.01 µM): 17.3%
- viability, T/C [9]: 18.1%
- viability, T/C [10]: 16.7%
